Test results: patent US20260274867A1, “PYRIDO[4,3-D]PYRIMIDINE DERIVATIVES AS MUTANT KRAS G12C INHIBITORS FOR THE TREATMENT OF CANCER” (Frontier Medicines Corporation, priority 2023, published 2026)

Biological target: T1, KRAS G12C (GMPPNP-loaded, Cys-light, amino acids 1-169) and cRAF Ras-binding domain interaction (Homo sapiens, UniProt P01116, C118S/C51S/C80L/G12C)
T1 construct: truncated version comprising amino acids 1-169
Experiment: Inhibition of KRAS G12C and cRAF binding (AlphaScreen)
Conditions: KRAS G12C preloaded with GMPPNP, 2 hours compound incubation, room temperature
Protocol: The AlphaScreen technology was used to determine IC50s for compound inhibition of KRAS G12C (present as the Cys-light (C51S, C80L and C118S), truncated version comprising amino acids 1-169) and cRAF interaction. Compounds were diluted in 100% DMSO and each compound concentration was spotted at 200 nl/well onto low volume, white 384 well plates. The KRAS G12C contained a biotin-AviTag and the cRaf, as Ras-binding domain (amino acids 50-131, RBD), was GST-tagged. KRAS G12C was preloaded with the GTP analogue Guanosine 5′-[…] (GMPPNP). The KRAS G12C was diluted in 25 mM Hepes, pH 7.4, 150 mM NaCl, 5 mM MgCl2, 0.01% TritonX-100 and 10 μM GMPPNP and added at 10 ul/well to compound-spotted plates resulting in a DMSO concentration of 2%. Plates were incubated for 2 hours. A mixture of RBD and the AlphaScreen streptavidin donor and glutathione acceptor beads diluted in 25 mM Hepes, pH 7.4, 150 mM NaCl, 5 mM MgCl2, 0.01% TritonX-100 and 2% DMSO was then added at 10 ul/well and incubated for 60-90 minutes before the samples were read for emission at 570 nm after excitation of the donor beads at 680 nm. All incubations were performed at room temperature. The final top compound concentration was 50 μM with 1:3 titrations for 10-point dose response curves. Final assay conditions were 0.5 nM KRAS G12C, 0.75 nM RBD and 5 μg/ml each of AlphaScreen donor and acceptor beads. IC50s were determined using nonlinear regression fit of [inhibitor] vs. response (4 parameters).
A counter assay was also set up to rule out inhibitors of the AlphaScreen technology itself. Compound plates were incubated for 2 hours as above with buffer only. The AlphaScreen beads were added as above except biotin-AviTag-GST was substituted for the RBD. Samples were read and analyzed as above.

T1 sequence (P01116 1-169 isoform P01116-2 G12C/C51S/C80L/C118S): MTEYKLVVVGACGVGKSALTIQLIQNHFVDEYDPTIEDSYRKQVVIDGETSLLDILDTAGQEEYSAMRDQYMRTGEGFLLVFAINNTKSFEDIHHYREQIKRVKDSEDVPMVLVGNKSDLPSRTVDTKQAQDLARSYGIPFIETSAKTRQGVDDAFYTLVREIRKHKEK

SMILES	IC50
CN1CCC1/C=C(\F)C(=O)N1CCN(c2nc(OC[C@@]34CCCN3C[C@H](F)C4)nc3c(F)c(-c4cccc5ccc(F)c(Cl)c45)ncc23)C[C@@H]1CC#N (stereo partly drawn) [Compound 16, 2-((2S)-4-(7-(8-chloro-7-fluoronaphthalen-1-yl)-8-fluoro-2-(((2R,7aS)-2-fluorotetrahydro-1H-pyrrolizin-7a(5H)-yl)methoxy)pyrido[4,3-d]pyrimidin-4-yl)-1-((Z)-2-fluoro-3-(1-methylazetidin-2-yl)acryloyl)piperazin-2-yl)acetonitrile]	100 to 500 nM
Cc1cc(/C=C(\F)C(=O)N2CCN(c3nc(OC[C@@]45CCCN4C[C@H](F)C5)nc4c(F)c(-c5cccc6cccc(F)c56)ncc34)C[C@@H]2CC#N)nc(C)n1 [Compound 19]	< 10 nM
Cc1nccc(/C=C(\F)C(=O)N2CCN(c3nc(OC[C@@]45CCCN4C[C@H](F)C5)nc4c(F)c(-c5cccc(Cl)c5C5CC5)ncc34)C[C@@H]2CC#N)n1 [Compound 20]	< 10 nM
Cc1nccc(/C=C(\F)C(=O)N2CCN(c3nc(OC[C@@]45CCCN4C[C@H](F)C5)nc4c(F)c(-c5cccc6c(C)c(F)ccc56)ncc34)C[C@@H]2CC#N)n1 [Compound 23]	10 to 100 nM
N#CC[C@H]1CN(c2nc(OC[C@@]34CCCN3C[C@H](F)C4)nc3c(F)c(-c4cccc5ccc(F)c(F)c45)ncc23)CCN1C(=O)/C(F)=C/CN1CCOCC1 [Compound 24]	100 to 500 nM
Cc1cc(/C=C(\F)C(=O)N2CCN(c3nc(OC[C@@]45CCCN4C[C@H](F)C5)nc4c(F)c(-c5cccc6cccc(Cl)c56)ncc34)C[C@@H]2CC#N)nc(C)n1 [Compound 26]	< 10 nM
Cc1cc(/C=C(\F)C(=O)N2CCN(c3nc(OC[C@@]45CCCN4C[C@H](F)C5)nc4c(F)c(-c5cccc6ccc(F)c(F)c56)ncc34)C[C@@H]2CC#N)nc(C)n1 [Compound 27]	< 10 nM
C#Cc1c(F)ccc2cccc(-c3ncc4c(N5CCN(C(=O)/C(F)=C/c6cc(C)nc(C)n6)[C@@H](CC#N)C5)nc(OC[C@@]56CCCN5C[C@H](F)C6)nc4c3F)c12 [Compound 29, 2-((S)-1-((Z)-3-(2,6-dimethylpyrimidin-4-yl)-2-fluoroacryloyl)-4-(7-(8-ethynyl-7-fluoronaphthalen-1-yl)-8-fluoro-2-(((2R,7aS)-2-fluorotetrahydro-1H-pyrrolizin-7a(5H)-yl)methoxy)pyrido[4,3-d]pyrimidin-4-yl)piperazin-2-yl)acetonitrile]	< 10 nM
N#CC[C@H]1CN(c2nc(OC[C@@]34CCCN3C[C@H](F)C4)nc3c(F)c(-c4cccc5ccc(F)c(Cl)c45)ncc23)CCN1C(=O)/C(F)=C/CN1[C@@H]2CC[C@H]1COC2 [Compound 31]	≥ 500 nM

Further lines, results first:

IC50	SMILES
≥ 500 nM	CN1CCC1/C=C(/F)C(=O)N1CCN(c2nc(OC[C@@]34CCCN3C[C@H](F)C4)nc3c(F)c(-c4cccc5ccc(F)c(Cl)c45)ncc23)C[C@@H]1CC#N (stereo partly drawn) [Compound 17]
< 10 nM	Cc1nccc(/C=C(\F)C(=O)N2CCN(c3nc(OC[C@@]45CCCN4C[C@H](F)C5)nc4c(F)c(-c5cccc6cccc(Cl)c56)ncc34)C[C@@H]2CC#N)n1 [Compound 18]
≥ 500 nM	N#CC[C@H]1CN(c2nc(OC[C@@]34CCCN3C[C@H](F)C4)nc3c(F)c(-c4cccc5cccc(Cl)c45)ncc23)CCN1C(=O)/C(F)=C/CN1[C@@H]2CC[C@H]1COC2 [Compound 21]
< 10 nM	Cc1nccc(/C=C(\F)C(=O)N2CCN(c3nc(OC[C@@]45CCCN4C[C@H](F)C5)nc4c(F)c(-c5cccc6ccc(F)c(C)c56)ncc34)C[C@@H]2CC#N)n1 [Compound 22]
≥ 500 nM	N#CC[C@H]1CN(c2nc(OC[C@@]34CCCN3C[C@H](F)C4)nc3c(F)c(-c4cccc5cccc(F)c45)ncc23)CCN1C(=O)/C(F)=C/CN1[C@@H]2CC[C@H]1COC2 [Compound 28]
< 10 nM	C#Cc1c(F)ccc2cccc(-c3ncc4c(N5CCN(C(=O)/C(F)=C/c6ccnc(C)n6)[C@@H](CC#N)C5)nc(OC[C@@]56CCCN5C[C@H](F)C6)nc4c3F)c12 [Compound 30]
